In test [1] the target is T1, SIK1 (Homo sapiens, UniProt P57059).
T1 construct: purchased Carna Biosciences 02-131
As to the kind of experiment: biochemical. As to conditions: 33P radioactive SIK kinase assay, AMARA peptide, 10 μM ATP; read-out: SIK1 IC50. The gist of the method:
(§1)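 AMARA peptide phosphorylation by SIK1–3 is quantified through ^33P uptake from a labeled/unlabeled ATP blend. Staurosporine at 10 μM final defines full inhibition, 1% DMSO the uninhibited signal. Quench uses phosphoric acid; counting follows filter capture.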

The target of test [2] is T2, SIK2 (Homo sapiens, UniProt Q9H0K1).
T2 construct: purchased ThermoFisher Scientific PV4792
T2 sequence (Q9H0K1 whole entry): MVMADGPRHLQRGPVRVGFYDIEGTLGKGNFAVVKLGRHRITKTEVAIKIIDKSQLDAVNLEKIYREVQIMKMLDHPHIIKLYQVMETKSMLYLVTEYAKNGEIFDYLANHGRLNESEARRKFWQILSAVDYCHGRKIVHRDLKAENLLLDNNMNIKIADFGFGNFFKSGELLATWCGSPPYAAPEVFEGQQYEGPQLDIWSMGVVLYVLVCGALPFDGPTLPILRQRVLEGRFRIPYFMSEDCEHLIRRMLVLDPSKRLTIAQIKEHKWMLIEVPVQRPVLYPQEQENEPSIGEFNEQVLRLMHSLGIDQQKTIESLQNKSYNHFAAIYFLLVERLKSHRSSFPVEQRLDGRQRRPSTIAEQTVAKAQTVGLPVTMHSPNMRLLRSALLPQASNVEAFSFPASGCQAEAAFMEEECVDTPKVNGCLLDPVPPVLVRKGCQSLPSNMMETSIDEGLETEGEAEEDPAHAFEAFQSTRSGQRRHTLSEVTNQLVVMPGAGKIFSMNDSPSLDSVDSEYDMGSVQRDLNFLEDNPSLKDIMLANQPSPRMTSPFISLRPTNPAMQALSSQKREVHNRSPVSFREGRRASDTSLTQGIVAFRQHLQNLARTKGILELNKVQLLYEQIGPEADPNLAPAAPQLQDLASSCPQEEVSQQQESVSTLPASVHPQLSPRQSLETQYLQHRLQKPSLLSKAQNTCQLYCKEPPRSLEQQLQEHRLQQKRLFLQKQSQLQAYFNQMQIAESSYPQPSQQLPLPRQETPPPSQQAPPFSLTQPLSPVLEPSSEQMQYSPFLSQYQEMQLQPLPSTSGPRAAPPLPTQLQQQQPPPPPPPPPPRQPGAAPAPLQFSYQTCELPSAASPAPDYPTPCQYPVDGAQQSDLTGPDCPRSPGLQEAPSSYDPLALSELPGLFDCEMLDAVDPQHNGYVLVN
Briefly: biochemical. The conditions noted are these: 33P radioactive SIK kinase assay, AMARA peptide, 10 μM ATP. The gist of the method:
as §1

The target in test [3] is T3, SIK3 (Homo sapiens, UniProt Q9Y2K2).
T3 construct: purchased SignalChem S12-11G-100
T3 sequence (Q9Y2K2 whole entry): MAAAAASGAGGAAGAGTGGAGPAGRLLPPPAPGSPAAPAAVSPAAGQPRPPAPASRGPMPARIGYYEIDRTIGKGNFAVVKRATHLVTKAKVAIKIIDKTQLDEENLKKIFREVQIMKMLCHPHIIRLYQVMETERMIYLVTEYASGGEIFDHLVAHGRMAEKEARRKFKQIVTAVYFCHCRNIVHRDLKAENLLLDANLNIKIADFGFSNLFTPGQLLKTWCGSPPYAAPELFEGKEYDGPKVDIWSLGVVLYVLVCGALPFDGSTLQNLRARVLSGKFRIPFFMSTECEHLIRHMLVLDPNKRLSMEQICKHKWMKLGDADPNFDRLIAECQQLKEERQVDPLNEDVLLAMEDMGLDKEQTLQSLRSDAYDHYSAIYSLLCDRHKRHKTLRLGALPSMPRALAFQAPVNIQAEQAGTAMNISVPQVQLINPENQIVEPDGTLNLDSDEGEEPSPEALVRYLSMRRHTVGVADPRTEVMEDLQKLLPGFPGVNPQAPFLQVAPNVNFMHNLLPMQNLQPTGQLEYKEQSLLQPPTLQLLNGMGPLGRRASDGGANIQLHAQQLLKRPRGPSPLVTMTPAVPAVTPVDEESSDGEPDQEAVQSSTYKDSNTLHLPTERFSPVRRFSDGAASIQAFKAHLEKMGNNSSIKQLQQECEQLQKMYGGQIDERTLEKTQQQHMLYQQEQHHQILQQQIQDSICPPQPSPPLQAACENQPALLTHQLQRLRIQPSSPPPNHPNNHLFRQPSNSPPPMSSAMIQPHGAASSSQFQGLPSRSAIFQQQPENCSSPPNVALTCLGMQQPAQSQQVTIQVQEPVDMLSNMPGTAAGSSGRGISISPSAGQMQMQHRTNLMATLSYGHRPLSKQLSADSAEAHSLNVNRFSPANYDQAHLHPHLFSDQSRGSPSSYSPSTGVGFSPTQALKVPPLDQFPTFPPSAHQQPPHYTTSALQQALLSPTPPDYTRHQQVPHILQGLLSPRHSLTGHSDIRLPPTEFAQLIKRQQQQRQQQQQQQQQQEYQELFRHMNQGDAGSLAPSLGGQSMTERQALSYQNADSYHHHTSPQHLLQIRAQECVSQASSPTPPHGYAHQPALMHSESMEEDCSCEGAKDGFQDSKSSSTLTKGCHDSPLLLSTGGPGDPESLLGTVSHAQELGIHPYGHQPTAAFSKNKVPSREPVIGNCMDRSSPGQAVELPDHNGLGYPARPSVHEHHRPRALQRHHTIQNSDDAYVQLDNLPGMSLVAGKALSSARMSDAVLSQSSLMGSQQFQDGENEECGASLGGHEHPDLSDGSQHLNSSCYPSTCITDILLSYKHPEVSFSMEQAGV
Briefly: biochemical. The procedure, abridged:
as §1

Test [4] has as its target T1, SIK1. Briefly: biochemical. As to conditions: ADP-Glo SIK kinase assay. The procedure, abridged:
(§2)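 Wells with 1% DMSO or 10 μM staurosporine (final) define the control window. The kinase reaction with substrate and ATP runs 120 min at RT, followed by ADP-Glo detection: ATP depletion (40 min) and ADP-derived luminescence (30 min).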

Test [5] deals with T2, SIK2. As to the kind of experiment: biochemical. As to conditions: ADP-Glo SIK kinase assay. The gist of the method:
as §2
(In general: ADP-Glo first removes unused ATP, then detects ADP through luciferase.)

The target of test [6] is T3, SIK3. Briefly: biochemical. The conditions noted are these: ADP-Glo SIK kinase assay. The procedure, abridged:
as §2

Test [7] deals with LPS-induced TNFα secretion in monocyte-derived macrophages (MdM). Briefly: MdM assay: LPS-triggered TNFα (ELISA). It is filed as cell-based, human. The conditions noted are these: Homo sapiens, Macrophage, LPS-triggered TNFα inhibition. The gist of the method:
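TNFα ELISA read on supernatants harvested 20 h after LPS (final 200 ng/mL) stimulation. Cells were day-10 macrophages derived from human blood CD14+ monocytes, exposed to 3-fold compound dilutions for 1 h at 37 °C beforehand, with DMSO held at 0.2%.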
In general terms: In an ELISA, binding on a coated surface is turned into a signal by an enzyme label.

The subject of test [8] is LPS triggered IL-10 secretion in monocyte-derived macrophages (MdM). As to the kind of experiment: MdM assay: LPS-triggered IL-10 (ELISA). As to conditions: maximal fold change vs LPS only, median across assays. Type of test: cell-based, human. The procedure, abridged: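 Readout is IL-10FCmax, the median across at least two runs of the highest fold change over LPS-only, from ELISA absorbance at 450 nm of 2 h supernatants. Macrophages came from day-10 cultures of human CD14+ monocytes, were given compound for 1 h at 37° C in 0.2% DMSO, then 200 ng/mL LPS.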

Each structure is given as a SMILES string. Where two headings read alike, the source gives them in different places.

Data on 15 compounds can be found in US12065443B2, “Compounds and pharmaceutical compositions thereof for the treatment of diseases” (priority 2017, dated 2024).

T1 sequence (P57059 whole entry): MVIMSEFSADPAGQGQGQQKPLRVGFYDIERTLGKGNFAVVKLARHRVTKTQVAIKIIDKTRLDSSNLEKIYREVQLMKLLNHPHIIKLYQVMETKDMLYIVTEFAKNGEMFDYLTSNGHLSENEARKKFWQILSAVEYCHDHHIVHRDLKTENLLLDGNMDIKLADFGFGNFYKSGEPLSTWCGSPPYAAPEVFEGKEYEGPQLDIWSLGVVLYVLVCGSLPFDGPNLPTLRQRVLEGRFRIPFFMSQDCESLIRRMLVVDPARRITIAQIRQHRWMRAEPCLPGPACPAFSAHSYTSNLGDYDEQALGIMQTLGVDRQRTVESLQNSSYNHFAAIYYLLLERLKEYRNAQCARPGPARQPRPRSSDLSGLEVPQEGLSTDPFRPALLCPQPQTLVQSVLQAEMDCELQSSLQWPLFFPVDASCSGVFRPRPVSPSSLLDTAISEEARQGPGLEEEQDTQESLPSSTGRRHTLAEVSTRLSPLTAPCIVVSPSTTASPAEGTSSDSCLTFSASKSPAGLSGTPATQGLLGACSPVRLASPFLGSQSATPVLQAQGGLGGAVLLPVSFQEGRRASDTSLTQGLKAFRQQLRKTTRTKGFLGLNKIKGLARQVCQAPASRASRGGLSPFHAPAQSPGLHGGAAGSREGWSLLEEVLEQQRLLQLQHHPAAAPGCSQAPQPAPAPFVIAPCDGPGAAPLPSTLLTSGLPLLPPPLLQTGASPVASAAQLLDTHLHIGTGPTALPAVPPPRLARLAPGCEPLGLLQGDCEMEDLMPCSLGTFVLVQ

Take `CNc1cc(-c2cnc3cc(-c4cnn(C)c4)ccn23)cc(OC)c1C(=O)NCC(F)(F)F` [Cpd 204]: the IC50 in test [1], in test [2], in test [3], in test [4], in test [5] and in test [6] was 0.01 to 10 nM throughout. For the same compound, in test [7], the half-maximal effective concentration (EC50) (as a rule, the midpoint of the concentration-response curve) is 0.1 to 100 nM. Moreover, in test [8], the “IL-10 FCmax median” value is “++ (>1.5-4.5)”.
As for `COc1cc(-c2cnc3cc(-c4cnn(C)c4)ccn23)cc2c1C(=O)N(CC(F)(F)F)CC2` [Cpd 225, 8-methoxy-6-[7-(1-methylpyrazol-4-yl)imidazo[1,2-a]pyridin-3-yl]-2-(2,2,2-trifluoroethyl)-3,4-dihydroisoquinolin-1-one], the IC50 (commonly the concentration that inhibits the measured activity by half) in test [1] is 10 to 100 nM; in test [2], 0.01 to 10 nM; in test [3] it was 0.01 to 10 nM; in test [4] it was 0.01 to 10 nM; in test [5] it was 0.01 to 10 nM; in test [6], 0.01 to 10 nM. This compound came in with an EC50 in test [7] of 0.1 to 100 nM. In test [8], the “IL-10 FCmax median” value is on record as “++ (>1.5-4.5)”.
Consider `COc1cc(-c2cnc3cc(-c4cnn(C5CN(CCC#N)C5)c4)ccn23)cc(OC)c1C(=O)NCC(F)(F)F` [Cpd 264, 4-[7-[1-[1-(2-cyanoethyl)azetidin-3-yl]pyrazol-4-yl]imidazo[1,2-a]pyridin-3-yl]-2,6-dimethoxy-N-(2,2,2-trifluoroethyl)benzamide], for which the IC50 in test [4], in test [5] and in test [6] was 0.01 to 10 nM each time. In test [7], this compound gave an EC50 of 0.1 to 100 nM. Also, the “IL-10 FCmax median” value in test [8] was “++ (>1.5-4.5)”.
In the case of `COc1cc(-c2cnc3cc(-c4ccc(C)nn4)ccn23)cc2c1C(=O)N(CC(F)(F)F)CC2` [Cpd 275, 8-methoxy-6-[7-(6-methylpyridazin-3-yl)imidazo[1,2-a]pyridin-3-yl]-2-(2,2,2-trifluoroethyl)-3,4-dihydroisoquinolin-1-one], the IC50 in test [4] lay in the range of 10 to 100 nM; in test [5] it was 0.01 to 10 nM; in test [6], 0.01 to 10 nM. In test [7], this compound displayed an EC50 of 0.1 to 100 nM. Also, the “IL-10 FCmax median” value in test [8] is reported as “++ (>1.5-4.5)”.
For `CCOC(=O)C(C)Cn1cc(-c2ccn3c(-c4cc(OC)c(C(=O)NCC(F)(F)F)c(OC)c4)cnc3c2)cn1` (centres unmarked) [Cpd 293, ethyl 3-[4-[3-[3,5-dimethoxy-4-(2,2,2-trifluoroethyl-carbamoyl)phenyl]imidazo[1,2-a]pyridin-7-yl]pyrazol-1-yl]-2-methyl-propanoate], the IC50 in test [4], in test [5] and in test [6] was 0.01 to 10 nM each time. Further, the EC50 in test [7] was 0.1 to 100 nM. Besides, the “IL-10 FCmax median” value in test [8] is recorded as “++ (>1.5-4.5)”.
Regarding `COc1cc(-c2cnc3cc(-c4cnn(C)c4)ccn23)cc(OC)c1C(=O)NCC(F)F` [compound 133, N-(2,2-difluoroethyl)-2,6-dimethoxy-4-[7-(1-methylpyrazol-4-yl)imidazo[1,2-a]pyridin-3-yl]benzamide], the IC50 in test [1], in test [2], in test [3], in test [4], in test [5] and in test [6] was 0.01 to 10 nM each time. The compound further showed an EC50 in test [7] of 0.1 to 100 nM. For the same compound, the “IL-10 FCmax median” value in test [8] is recorded as “++ (>1.5-4.5)”.
Turning to `COc1cc(-n2cnc3cc(-c4cnn(C)c4)ccc32)cc(OC)c1C(=O)N1CC(F)(F)C1` [compound 142, (3,3-difluoroazetidin-1-yl)-[2,6-dimethoxy-4-[5-(1-methylpyrazol-4-yl)benzimidazol-1-yl]phenyl]methanone], the IC50 in test [1], in test [2], in test [3], in test [4], in test [5] and in test [6] was 10 to 100 nM in each case. This compound also yielded an EC50 in test [7] of 100 to 1000 nM. In addition, the “IL-10 FCmax median” value in test [8] is on record as “++ (>1.5-4.5)”.
Take `COc1cc(-c2cnc3cc(-c4cn(C)cn4)ccn23)cc(OC)c1C(=O)N[C@H](C)C(F)(F)F` [compound 215, 2,6-dimethoxy-4-[7-(1-methylimidazol-4-yl)imidazo[1,2-a]pyridin-3-yl]-N-[(1R)-2,2,2-trifluoro-1-methyl-ethyl]benzamide]: the IC50 fell in the range of 10 to 100 nM in test [1]; 0.01 to 10 nM in test [2]; 0.01 to 10 nM in test [3]; 10 to 100 nM in test [4]; 0.01 to 10 nM in test [5]; 0.01 to 10 nM in test [6]. The same compound gave an EC50 in test [7] of 100 to 1000 nM. In test [8], the “IL-10 FCmax median” value was “++ (>1.5-4.5)”.
Take `COc1cc(-c2cnc3cc(-c4cn[nH]c4)ccn23)cc(OC)c1C(=O)NCC(F)(F)F` [compound 227, 2,6-dimethoxy-4-[7-(1H-pyrazol-4-yl)imidazo[1,2-a]pyridin-3-yl]-N-(2,2,2-trifluoroethyl)benzamide]: the IC50 in test [1], in test [2], in test [3], in test [4], in test [5] and in test [6] was 0.01 to 10 nM each time. The compound also returned an EC50 in test [7] of 0.1 to 100 nM. In test [8], the “IL-10 FCmax median” value is listed as “+++ (>4.5)”.
As to `CCOC(=O)Cn1cc(-c2ccn3c(-c4cc(OC)c(C(=O)NCC(F)(F)F)c(OC)c4)cnc3c2)cn1` [compound 230, ethyl 2-[4-[3-[3,5-dimethoxy-4-(2,2,2-trifluoroethyl-carbamoyl)phenyl]imidazo[1,2-a]pyridin-7-yl]pyrazol-1-yl]acetate], the half-inhibitory concentration (IC50) in test [1], in test [2], in test [3], in test [4], in test [5] and in test [6] was 0.01 to 10 nM throughout. In test [7], this compound gave an EC50 of 0.1 to 100 nM. The “IL-10 FCmax median” value in test [8] is on record as “+++ (>4.5)”.
As to `COc1cc(-c2cnc3cc(-c4cnn(C)c4)ccn23)cc2c1C(=O)N(C1CC1)CC2` [compound 262, 2-cyclopropyl-8-methoxy-6-[7-(1-methylpyrazol-4-yl)imidazo[1,2-a]pyridin-3-yl]-3,4-dihydroisoquinolin-1-one], the IC50 was in the range of 10 to 100 nM in test [1]; 0.01 to 10 nM in test [2]; 0.01 to 10 nM in test [3]; 0.01 to 10 nM in test [4]; 0.01 to 10 nM in test [5]; 0.01 to 10 nM in test [6]. Further, the EC50 in test [7] was in the range of 0.1 to 100 nM.
Turning to `COc1cc(-c2cnc3cc(-c4cnn(C5CN(CC#N)C5)c4)ccn23)cc(OC)c1C(=O)NCC(F)(F)F` [compound 265, 4-[7-[1-[1-(cyanomethyl)azetidin-3-yl]pyrazol-4-yl]imidazo[1,2-a]pyridin-3-yl]-2,6-dimethoxy-N-(2,2,2-trifluoroethyl)benzamide], the IC50 in test [4], in test [5] and in test [6] was 0.01 to 10 nM throughout. This compound also displayed an EC50 in test [7] of 0.1 to 100 nM. For the same compound, the “IL-10 FCmax median” value in test [8] was “++ (>1.5-4.5)”.
For `COc1cc(-c2cnc3cc(-c4cnnc(C)c4)ccn23)cc(OC(F)F)c1C(=O)NC1CC1` [compound 272, N-cyclopropyl-2-(difluoromethoxy)-6-methoxy-4-[7-(6-methylpyridazin-4-yl)imidazo[1,2-a]pyridin-3-yl]benzamide], the figures for the IC50 in test [4], in test [5] and in test [6] were 10 to 100 nM, 0.01 to 10 nM and 0.01 to 10 nM, respectively. The EC50 in test [7] was in the range of 100 to 1000 nM. In addition, the “IL-10 FCmax median” value in test [8] was “++ (>1.5-4.5)”.
Consider `COc1cc(-c2cnc3cc(-c4cnn(C)c4)ccn23)cc(OCCO)c1C(=O)NC1CC1` [compound 279, N-cyclopropyl-2-(2-hydroxyethoxy)-6-methoxy-4-[7-(1-methylpyrazol-4-yl)imidazo[1,2-a]pyridin-3-yl]benzamide], for which the IC50 in test [4], in test [5] and in test [6] was 0.01 to 10 nM in each case. Besides, the EC50 in test [7] was in the range of 100 to 1000 nM. Moreover, the “IL-10 FCmax median” value in test [8] is recorded as “++ (>1.5-4.5)”.
Turning to `COc1ccc(-c2ccn3c(-c4cc(OC)c(C(=O)NC5CC5)c(OC(F)F)c4)cnc3c2)nn1` [compound 280, N-cyclopropyl-2-(difluoromethoxy)-6-methoxy-4-[7-(6-methoxypyridazin-3-yl)imidazo[1,2-a]pyridin-3-yl]benzamide], the half-maximal inhibitory concentration (IC50) in test [4], in test [5] and in test [6] was 0.01 to 10 nM throughout. In test [7], this compound gave an EC50 of 0.1 to 100 nM. Further, in test [8], the “IL-10 FCmax median” value was “++ (>1.5-4.5)”.
